In publication PMC4578755, “Development of novel cellular histone-binding and chromatin-displacement assays for bromodomain drug discovery” (Epigenetics & Chromatin, 2015):

Biological target: T1, TRIM24-PB chromatin binding in HeLa TRIM24-PB cells (Homo sapiens, UniProt O15164)
T1 construct: The FLAG-TRIM24-PB construct (residues 810–1050) was generated by PCR amplification; expressed in transfected cells
T1 sequence (O15164 810-1050): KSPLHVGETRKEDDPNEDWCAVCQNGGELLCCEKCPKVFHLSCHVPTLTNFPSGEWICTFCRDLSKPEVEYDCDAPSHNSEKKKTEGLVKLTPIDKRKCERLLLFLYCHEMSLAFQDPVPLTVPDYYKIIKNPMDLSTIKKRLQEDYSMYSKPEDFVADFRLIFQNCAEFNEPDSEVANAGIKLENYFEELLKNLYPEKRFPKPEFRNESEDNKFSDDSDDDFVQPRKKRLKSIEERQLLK
Assay: In situ cell extraction with IF in HeLa TRIM24-PB cells
Assay type: cell-based
Protocol: OV90 or HeLa cells (20,000 cells/100 µL) were seeded into 96-well plates (Corning Costar #3603) using RPMI or DMEM medium, respectively, supplemented with 10 % FBS and grown overnight. Test agents were serially diluted in DMSO (with or without SAHA) to generate 10X master compound plates. From here, 11 µL was transferred into each well containing 100 µL of growth media followed by shaking on a rotation table (15 min, 300 rpm at RT) and incubation at 37 °C for 2 h. Plates were washed once with PBS (150 µL/well) and then with cold, freshly prepared Cytoskeleton (CSK) Buffer (10 mM PIPES, 300 mM Sucrose, 100 mM NaCl, 3 mM MgCl2; pH = 6.8). Immediately thereafter, soluble, non-chromatin-bound proteins were extracted by addition of cold CSK Buffer supplemented with 0.5 % Triton X-100 (150 µL per well) for 10 min at 4 °C followed by 4 % paraformaldehyde fixation (10 min at RT) (Additional file 1: Table S3).
Standard IF procedures were used. Briefly, cells were permeabilized (0.5 % Triton X-100 in PBS) for 15 min and incubated with blocking solution (DAKO #X0909) for 30 min. The following primary antibodies were used: goat anti-V5 (Bethyl #A190-119A) 1:200; mouse anti-FLAG (Sigma #F1804) 1:200; rabbit anti-BRD4 (Abcam #ab128874) 1:200; rabbit anti-TRIM24 (Proteintech #14208-1-AP) 1:400; rabbit anti-K3K23Ac (Cell Signaling #8848) 1:200, and mouse anti-histone H3 (Active Motif #39763) 1:4000. Alexa Fluor-conjugated secondary antibodies were from Invitrogen and Hoechst 33342 (Invitrogen, #H3570) was used for nuclei counterstaining (10 µg/ml). For each Alexa fluorochrome, images (4–10 fields per well; 20X magnifications) were acquired using the Operetta High-Content Screening System (PerkinElmer). Image analysis was performed in Harmony software (PerkinElmer) by selecting nuclei and cytoplasm in Hoechst channel. Gating for single cells of flat morphology was done based on nuclei area, roundness and intensity of Hoechst in the nucleus and in the cytoplasm. In every gated cell, the mean signal intensity value for each fluorochrome was calculated separately in nucleus and cytoplasm. The specific nuclear signal was estimated subtracting mean cytoplasmic value from nuclear; and average value was calculated using at least 1000 cells in each well.
Supplemental Table S3 (Zhan et al.)
Table S3. In Situ Cell Extraction Procedure (IF)
Step Parameter Solution Volume Time Temp (°C)
Seed cells DMEM supplemented with 10 % FBS 37°C,
2 SAHA treatment SAHA (50 µM) in DMEM with 10% FBS 12 µL 2h 37°C,
3 Prepare Master 100X final concentration in assay 30 µL […]
Image analysis: The analysis was performed in Harmony (PerkinElmer) software by selecting nuclei and cytoplasm in Hoechst 33342 channel . […] For each channel “mean nuclear signal“ was calculated as “mean […]

O=C(CCCCCCC(=O)Nc1ccccc1)NO [SAHA, Suberoylanilide Hydroxamic Acid] was tested, and the “SAHA-induced TRIM24-PB chromatin binding (assay window)” value (anti-FLAG antibody) was “fivefold” and the “SAHA-induced TRIM24-PB chromatin binding (assay window)” value (anti-TRIM24 antibody) was “twofold”.

In the case of Cc1nc(S(=O)(=O)Nc2cc3c(cc2Oc2cccc(OCC(C)C)c2)n(C)c(=O)n3C)cn1C [IACS-6558, N-{1,3-dimethyl-6-[3-(2-methylpropoxy)phenoxy]-2-oxo-2,3-dihydro-1H-1,3-benzodiazol-5-yl}-1,2-dimethyl-1H-imidazole-4-sulfonamide], the “Time to displacement of TRIM24-PB from chromatin” value (HeLa TRIM24-PB) was ≤ 5 min and the “IF signal of chromatin-bound TRIM24-PB” value (HeLa TRIM24-PB with SAHA, anti-FLAG and anti-TRIM24 antibodies, 2 h) was “reducing the IF signal to baseline”.
